This note sets out measurements from publication PMC8641298 (ACS infectious diseases, 2020).

SMILES strings stand for the structures.

The subject of data set [1] is acetylated α-tubulin in HEK293 cells. The data set is described as follows: HEK293 MT-stabilization assay. The format is cell-based. The note with it: either 1 or 10 μM, 4 h.
The test system of data set [2] is adult S. mansoni. Briefly: WormAssay, average adult worm motility. In kind it is cell-based, Schistosoma mansoni. As to conditions: assays performed at 10 μM (footnote d), 5 h; DMSO control 104.1 ± 24.4.
For data set [3], the system named is S. mansoni adults. The data set is described as follows: In vitro phenotypic screen of S. mansoni adults. In kind it is cell-based, Schistosoma mansoni. As to conditions: assays performed at 10 μM (footnote d).
Data set [4] can be described thus: HeLa cytotoxicity. In kind it is cell-based. As to conditions: human, HeLa cells.
Data set [5] is described as follows: HEK293 cytotoxicity. In kind it is cell-based. The note with it: human, HEK293 cells (method text: HEK 293T).
Data set [6] concerns S. mansoni somules. The data set is described as follows: In vitro phenotypic screen of S. mansoni somules. In kind it is cell-based, Schistosoma mansoni.

As to `C[C@H](Nc1nc(-c2cccs2)ncc1-c1c(F)cc(F)cc1F)C(F)(F)F` [Compound 26, (S)-2-(thiophen-2-yl)-5-(2,4,6-trifluorophenyl)-N-(1,1,1-trifluoropropan-2-yl)pyrimidin-4-amine], the “Fold-change in acetylated α-tubulin (significance)” value in data set [1] is “NS^e”. In data set [2], the “WormAssay (average adult worm movement ± SD)” value is listed as 11.0 ± 14.7^d. In data set [3] (5 h), the “Phenotypic descriptors, adults 5 h” value is “S^d”. In addition, the “Phenotypic descriptors, adults 24 h” value in data set [3] (24 h) is reported as “Unc, on sides^d”. Also, the “Phenotypic descriptors, adults 48 h” value in data set [3] (48 h) was “S, dark, on sides^d”. For the same compound, the CC50 (as a rule, the concentration that lowers cell viability or growth by half) at 48 h is above 100 µM in data set [4] and above 50 µM in data set [5]. For the same compound, the “Phenotypic descriptors, somules (1 μM) 24 h” value in data set [6] (1 μM, 24 h) was “R, S”. Further, in data set [6] (1 μM, 48 h), the “Phenotypic descriptors, somules (1 μM) 48 h” value is on record as “R”. In data set [6] (10 μM, 24 h), the “Phenotypic descriptors, somules (10 μM) 24 h” value is on record as “R, S”. In addition, the “Phenotypic descriptors, somules (10 μM) 48 h” value in data set [6] (10 μM, 48 h) is on record as “R, S”.
